Test results published in ChEMBL document CHEMBL5729619, “Substituted pyrazolo[3,4-b]pyrazines as SHP2 phosphatase inhibitors” (2023).

Target: T1, Tyrosine-protein phosphatase non-receptor type 11 (Homo sapiens, UniProt Q06124)
T1 sequence (Q06124 whole entry): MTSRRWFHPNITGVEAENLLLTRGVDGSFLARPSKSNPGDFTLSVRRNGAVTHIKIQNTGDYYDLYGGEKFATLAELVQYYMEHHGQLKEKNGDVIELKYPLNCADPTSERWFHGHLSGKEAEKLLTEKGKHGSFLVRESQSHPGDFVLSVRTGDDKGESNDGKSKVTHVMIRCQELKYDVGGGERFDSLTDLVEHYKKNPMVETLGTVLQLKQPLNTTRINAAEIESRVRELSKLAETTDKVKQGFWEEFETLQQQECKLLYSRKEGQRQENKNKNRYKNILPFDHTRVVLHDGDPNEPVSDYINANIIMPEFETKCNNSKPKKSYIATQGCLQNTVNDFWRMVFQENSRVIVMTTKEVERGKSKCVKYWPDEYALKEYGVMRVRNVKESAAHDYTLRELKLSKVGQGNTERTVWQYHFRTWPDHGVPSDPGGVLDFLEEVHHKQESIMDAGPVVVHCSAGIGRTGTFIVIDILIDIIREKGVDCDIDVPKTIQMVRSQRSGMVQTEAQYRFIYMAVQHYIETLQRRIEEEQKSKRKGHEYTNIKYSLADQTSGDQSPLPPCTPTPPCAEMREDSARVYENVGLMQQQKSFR
Experiment: Inhibition Assay: SHP2 is allosterically activated through binding of bis-tyrosyl-phorphorylated peptides to its Src Homology 2 (SH2) domains. The latter activation step leads to the release of the auto-inhibitory interface of SHP2, which in turn renders the SHP2 protein tyrosine phosphatase (PTP) active and available for substrate recognition and reaction catalysis. The catalytic activity of SHP2 was monitored using the surrogate substrate DiFMUP in a prompt fluorescence assay format.The inhibition of SHP2 by compounds of the disclosure (concentrations varying from 0.003-100 μM) was monitored using an assay in which 0.25 nM of SHP2 was incubated with of 0.5 μM of peptide IRS1_pY1172(dPEG8)pY1222 (sequence: H2N-LN(pY)IDLDLV(dPEG8)LST(pY)ASINFQK-amide) After 30-60 minutes incubation at 25° C., the surrogate substrate DiFMUP (Invitrogen, cat #D6567, 100 μM final) was added to the reaction and the conversion of DiFMUP to 6,8-difluoro-7-hydroxyl-4-methyl coumarin (DiFMU) was monitored continuously for 10 minutes with excitation at 355 nm and emission at 460 nm using a microplate reader (PolarStar, BMG).

IC50	Structure (SMILES)
< 1000 nM	C[C@@H]1OCC2(CCN(c3cnc4c(N5CC(=O)N(C)c6cnccc65)n[nH]c4n3)CC2)[C@@H]1N
< 1000 nM	CC1(CN)CCN(c2cnc3c(N4CCc5c(C6CC6)cccc54)n[nH]c3n2)CC1
< 1000 nM	C[C@@H]1OCC2(CCN(c3cnc4c(N5CCNc6cnccc65)n[nH]c4n3)CC2)[C@@H]1N
< 1000 nM	C[C@@H]1OCC2(CCN(c3cnc4c(N5CCCc6nc(N7CCN(C)C(=O)C7)ccc65)n[nH]c4n3)CC2)[C@@H]1N
< 1000 nM	C[C@@H]1CCN(c2n[nH]c3nc(N4CCC5(CC4)CO[C@@H](C)[C@H]5N)cnc23)c2ccc(C(=O)NCc3cccnc3)nc21
< 1000 nM	C[C@@H]1OCC2(CCN(c3cnc4c(N5CCCc6c5cccc6S(=O)(=O)N(C)C)n[nH]c4n3)CC2)[C@@H]1N
